Results on nine compounds are retold here after patent US4761478A, “3-deazaguanine sulfonic acid salts” (Warner-Lambert Company, priority 1986, dated 1988).

For series [1] the following is noted: trimetrexate acid addition salts in water; data from U.S. Pat. No. 4,376,858; cited from earlier work.
The nature of series [2]: Water solubility of 3-deazaguanine and its acid addition salts (Table I). Format: physicochemical. To be noted: for Solubility: 3-deazaguanine salts in water; for water solubility (in words) / ml Water Needed to Dissolve: 3-deazaguanine salts; for ml Water Needed to Dissolve: 250 mg 3-deazaguanine plus one equivalent weight of the acid, water added until complete solution. How it is done: The common acids employed for the formulation of acid addition salts of pharmaceutical bases are listed in J. Pharm. […] The solubility values presented in Table I were determined as follows: 3-deazaguanine (250 mg) was suspended in a small volume of water and one equivalent weight of the acid was added with stirring. Stirring was continued and small volumes of water were added intermittently until complet solution was obtained.

A short description of series [3]: Solubility of trimetrexate acid addition salts in water (Table II). Conditions: decreasing order of solubility. Format: physicochemical.
Series [4] is described as follows: Relative solubility of m-AMSA acid addition salts (Table III). Format: physicochemical.
Series [5] can be described thus: Aqueous solution of 3-deazaguanine methanesulfonate salt remaining clear and free of precipitate. Format: physicochemical. To be noted: in water. How it is done: To a slurry of 24.5 g of 6-amino-1,5-dihydro-4H-imidazo-[4,5-c]pyridin-4-one (3-deazaguanine) in 250 ml of methyl alcohol was added a solution of 17.0 g of methanesulfonic acid in 50 ml of methyl alcohol. The mixture was stirred at room temperature for about 10 minutes, filtered, and the filter cake washed with methyl alcohol to give, after drying, 35.5 g (88%) of 3-deazaguanine methanesulfonate salt, mp 273°-275° C. This material produced a solution in water at a concentration of 41 mg/ml which remained clear and free of any precipitate for more than three days.

Series [6] can be described thus: Chemical stability of the sodium salt of 3-deazaguanine in aqueous solution. The format is physicochemical. To be noted: aqueous solution of sodium salt of 3-deazaguanine.

The structures appear in SMILES notation. “Also recorded” adds a separate entry of the source. Structures can show the parent of a compound that is named as a salt. Where two headings read alike, the source gives them in different places.

As for `COc1cc(NCc2ccc3nc(N)nc(N)c3c2C)cc(OC)c1OC` [2-Naphthalenesulfonic], the Solubility in series [1] was 0.15 mg/mL.
On to `COc1cc(NCc2ccc3nc(N)nc(N)c3c2C)cc(OC)c1OC` [Ethoxyacetic], for which the Solubility in series [1] is 19.5 mg/mL.
Consider `Nc1cc2nc[nH]c2c(=O)[nH]1` [H2 SO4], for which, in series [2], the Solubility lay in the range of 0.8 to 1.0 mg/mL and the “ml Water Needed to Dissolve” value was 250 to 300 mL. Also, in series [2] (water, listed as sulfate), the “water solubility (in words)” value was “poorly soluble”. The “water solubility (in words)” value in series [2] (water, listed as sulfate salt) was “lower solubility”. Also, in series [2] (sulfate salt of 3-deazaguanine vs free base), the “solubility relative to the corresponding free base” value is listed as “about one-half”.
`Nc1cc2nc[nH]c2c(=O)[nH]1` [H3 PO4]: in series [2], the Solubility was 1.9 to 2.1 mg/mL and the “ml Water Needed to Dissolve” value lay in the range of 120 to 130 mL.
In the same order, the values of `Nc1cc2nc[nH]c2c(=O)[nH]1` [HCl] are 3.3 to 3.8 mg/mL and 65 to 75 mL.
For `Nc1cc2nc[nH]c2c(=O)[nH]1` [Maleic], in that order: 1.6 to 1.7 mg/mL and 150 to 160 mL.
For the compound `CS(=O)(=O)O.Nc1cc2nc[nH]c2c(=O)[nH]1` [Methanesulfonic, 3-deazaguanine methanesulfonate salt], in series [2] (water), the “water solubility (in words)” value was “solubility advantage”. Besides, the “ml Water Needed to Dissolve” value in series [2] stood at 5 mL. Further, the Solubility is 50 mg/mL in series [2] (water, read-out: Solubility); 41 mg/mL in series [5] (read-out: concentration of solution produced in water); 9.83 mg/mL in series [1]. Moreover, the “order of solubility among the trimetrexate salts tested” value in series [3] was “sixth”. Besides, the “solubility compared with other m-AMSA salts (in words)” value in series [4] was “one of the least soluble salts”. The “time the solution remained clear and free of any precipitate” value in series [5] (41 mg/ml) was “more than three”.
For `COc1cc(NCc2ccc3nc(N)nc(N)c3c2C)cc(OC)c1OC` [p-Toluenesulfonic], the Solubility in series [1] is 1.73 mg/mL.
With `Nc1cc2nc[nH]c2c(=O)[nH]1` [sodium salt], in series [6], the “chemical stability in aqueous solution (in words)” value is listed as “tend to begin to degrade within a few hours of formulation; also recorded: chemically unstable”.
